PubChem BioAssay (NCI)
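Briefly, cells in 96-well plates were exposed to five compound concentrations for 48 h, and endpoints were estimated by linear interpolation. TGI marks complete inhibition of growth.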

What was measured:
Test in all cases: growth of human tumour cells (NCI), 48 h
MALME-3M melanoma = test system: MALME-3M melanoma
NCI-H226 lung = test system: NCI-H226 lung
EKVX NSCLC = test system: EKVX NSCLC
K-562 leukemia = test system: K-562 leukemia
SN12C renal = test system: SN12C renal
HT29 colon = test system: HT29 colon
RXF 393 renal = test system: RXF 393 renal
U251 CNS = test system: U251 CNS
A549 NSCLC = test system: A549 NSCLC
DMS 273 small cell lung = test system: DMS 273 small cell lung
CCRF-CEM leukemia = test system: CCRF-CEM leukemia
OVCAR-4 ovarian = test system: OVCAR-4 ovarian
RPMI-8226 leukemia = test system: RPMI-8226 leukemia
SK-MEL-2 melanoma = test system: SK-MEL-2 melanoma
HOP-62 NSCLC = test system: HOP-62 NSCLC
SF-539 CNS = test system: SF-539 CNS
NCI-H522 lung = test system: NCI-H522 lung
SK-MEL-5 melanoma = test system: SK-MEL-5 melanoma
NCI-H460 lung = test system: NCI-H460 lung
KM12 colon = test system: KM12 colon
UACC-257 melanoma = test system: UACC-257 melanoma
COLO 205 colon = test system: COLO 205 colon
SK-OV-3 ovarian = test system: SK-OV-3 ovarian
TK-10 renal = test system: TK-10 renal
IGROV1 ovarian = test system: IGROV1 ovarian
A498 renal = test system: A498 renal
HCC-2998 colon = test system: HCC-2998 colon
SNB-19 CNS = test system: SNB-19 CNS
MOLT-4 leukemia = test system: MOLT-4 leukemia
OVCAR-3 ovarian = test system: OVCAR-3 ovarian
SK-MEL-28 melanoma = test system: SK-MEL-28 melanoma
ACHN renal = test system: ACHN renal
786-0 renal = test system: 786-0 renal
HCT-116 colon = test system: HCT-116 colon
SF-295 CNS = test system: SF-295 CNS
CAKI-1 renal = test system: CAKI-1 renal
LOX IMVI melanoma = test system: LOX IMVI melanoma
DLD-1 colon = test system: DLD-1 colon
SW-620 colon = test system: SW-620 colon
OVCAR-8 ovarian = test system: OVCAR-8 ovarian
UO-31 renal = test system: UO-31 renal
NCI-H23 lung = test system: NCI-H23 lung
HL-60(TB) leukemia = test system: HL-60(TB) leukemia
SNB-75 CNS = test system: SNB-75 CNS
SR leukemia = test system: SR leukemia
LXFL 529 NSCLC = test system: LXFL 529 NSCLC
SNB-78 CNS = test system: SNB-78 CNS
UACC-62 melanoma = test system: UACC-62 melanoma
M14 melanoma = test system: M14 melanoma
M19-MEL melanoma = test system: M19-MEL melanoma
HOP-92 NSCLC = test system: HOP-92 NSCLC
HCT-15 colon = test system: HCT-15 colon
OVCAR-5 ovarian = test system: OVCAR-5 ovarian
SF-268 CNS = test system: SF-268 CNS
HOP-18 NSCLC = test system: HOP-18 NSCLC
KM20L2 colon = test system: KM20L2 colon
DMS 114 small cell lung = test system: DMS 114 small cell lung

Q: What does the source list for COc1ccc(C2[C@H]3C(=O)N(c4ccc(Cc5ccc(N6C(=O)[C@@H]7ON(c8ccccc8)C(c8ccc(OC)cc8)[C@@H]7C6=O)cc5)cc4)C(=O)[C@H]3ON2c2ccccc2)cc1 (some centres undefined)?
A: TGI (MALME-3M melanoma): > 100 µM; TGI (NCI-H226 lung): > 100 µM; TGI (EKVX NSCLC): > 100 µM; TGI (K-562 leukemia): > 100 µM; TGI (SN12C renal): > 100 µM; TGI (HT29 colon): > 100 µM; TGI (RXF 393 renal): > 100 µM; TGI (U251 CNS): > 100 µM; TGI (A549 NSCLC): > 100 µM; TGI (DMS 273 small cell lung): > 100 µM; TGI (CCRF-CEM leukemia): > 100 µM; TGI (OVCAR-4 ovarian): > 100 µM; TGI (RPMI-8226 leukemia): > 100 µM; TGI (SK-MEL-2 melanoma): > 100 µM; TGI (HOP-62 NSCLC): > 100 µM; TGI (SF-539 CNS): > 100 µM; TGI (NCI-H522 lung): > 100 µM; TGI (SK-MEL-5 melanoma): > 100 µM; TGI (NCI-H460 lung): > 100 µM; TGI (KM12 colon): > 100 µM; TGI (UACC-257 melanoma): > 100 µM; TGI (COLO 205 colon): > 100 µM; TGI (SK-OV-3 ovarian): > 100 µM; TGI (TK-10 renal): > 100 µM; TGI (IGROV1 ovarian): > 100 µM; TGI (A498 renal): > 100 µM; TGI (HCC-2998 colon): > 100 µM; TGI (SNB-19 CNS): > 100 µM; TGI (MOLT-4 leukemia): > 100 µM; TGI (OVCAR-3 ovarian): > 100 µM; TGI (SK-MEL-28 melanoma): > 100 µM; TGI (ACHN renal): > 100 µM; TGI (786-0 renal): > 100 µM; TGI (HCT-116 colon): > 100 µM; TGI (SF-295 CNS): > 100 µM; TGI (CAKI-1 renal): > 100 µM; TGI (LOX IMVI melanoma): > 100 µM; TGI (DLD-1 colon): > 100 µM; TGI (SW-620 colon): > 100 µM; TGI (OVCAR-8 ovarian): > 100 µM; TGI (UO-31 renal): > 100 µM; TGI (NCI-H23 lung): > 100 µM; TGI (HL-60(TB) leukemia): > 100 µM; TGI (SNB-75 CNS): > 100 µM; TGI (SR leukemia): > 100 µM; TGI (LXFL 529 NSCLC): > 100 µM; TGI (SNB-78 CNS): > 100 µM; TGI (UACC-62 melanoma): > 100 µM; TGI (M14 melanoma): 84.7 µM; TGI (M19-MEL melanoma): > 100 µM; TGI (HOP-92 NSCLC): > 100 µM; TGI (HCT-15 colon): > 100 µM; TGI (OVCAR-5 ovarian): > 100 µM; TGI (SF-268 CNS): > 100 µM; TGI (HOP-18 NSCLC): > 100 µM; TGI (KM20L2 colon): > 100 µM

Q: Nc1cc(-c2ccccc2)nn1-c1nsc2ccccc12 was tested. Which TGI (EKVX NSCLC) did it give?
A: Its TGI is > 100 µM.

Q: And the TGI (K-562 leukemia)?
A: Its TGI is > 100 µM.

Q: What about the TGI (SN12C renal) of the same molecule?
A: The TGI was > 100 µM.

Q: What about the TGI (HT29 colon) of the same molecule?
A: The TGI was > 100 µM.

Q: What about the TGI (RXF 393 renal) of the same molecule?
A: Its TGI is 61.7 µM.

Q: And the TGI (U251 CNS)?
A: Its TGI is > 100 µM.

Q: What about the TGI (A549 NSCLC) of the same molecule?
A: The TGI was > 100 µM.

Q: And the TGI (DMS 273 small cell lung)?
A: Its TGI is > 100 µM.

Q: And the TGI (CCRF-CEM leukemia)?
A: Its TGI is 62.3 µM.

Q: What about the TGI (OVCAR-4 ovarian) of the same molecule?
A: Its TGI is > 100 µM.

Q: And the TGI (RPMI-8226 leukemia)?
A: Its TGI is > 100 µM.

Q: And the TGI (SK-MEL-2 melanoma)?
A: Its TGI is > 100 µM.

Q: And the TGI (HOP-62 NSCLC)?
A: The TGI was > 100 µM.

Q: What about the TGI (SF-539 CNS) of the same molecule?
A: The TGI was > 100 µM.

Q: And the TGI (SK-MEL-5 melanoma)?
A: Its TGI is > 100 µM.

Q: And the TGI (NCI-H460 lung)?
A: Its TGI is > 100 µM.

Q: And the TGI (KM12 colon)?
A: The TGI was > 100 µM.

Q: What about the TGI (UACC-257 melanoma) of the same molecule?
A: The TGI was > 100 µM.

Q: What about the TGI (COLO 205 colon) of the same molecule?
A: Its TGI is > 100 µM.

Q: What about the TGI (TK-10 renal) of the same molecule?
A: The TGI was > 100 µM.

Q: What about the TGI (IGROV1 ovarian) of the same molecule?
A: Its TGI is > 100 µM.

Q: What about the TGI (HCC-2998 colon) of the same molecule?
A: The TGI was > 100 µM.

Q: What about the TGI (SNB-19 CNS) of the same molecule?
A: The TGI was > 100 µM.

Q: And the TGI (MOLT-4 leukemia)?
A: The TGI was > 100 µM.

Q: And the TGI (OVCAR-3 ovarian)?
A: Its TGI is > 100 µM.

Q: What about the TGI (DMS 114 small cell lung) of the same molecule?
A: Its TGI is > 100 µM.

Q: And the TGI (SK-MEL-28 melanoma)?
A: Its TGI is > 100 µM.

Q: What about the TGI (ACHN renal) of the same molecule?
A: Its TGI is > 100 µM.

Q: What about the TGI (HCT-116 colon) of the same molecule?
A: The TGI was > 100 µM.

Q: And the TGI (LOX IMVI melanoma)?
A: Its TGI is > 100 µM.

Q: And the TGI (SW-620 colon)?
A: Its TGI is > 100 µM.

Q: What about the TGI (OVCAR-8 ovarian) of the same molecule?
A: Its TGI is > 100 µM.

Q: And the TGI (UO-31 renal)?
A: The TGI was > 100 µM.

Q: What about the TGI (NCI-H23 lung) of the same molecule?
A: Its TGI is > 100 µM.

Q: And the TGI (HL-60(TB) leukemia)?
A: Its TGI is > 100 µM.

Q: What about the TGI (SNB-75 CNS) of the same molecule?
A: The TGI was 56.9 µM.

Q: And the TGI (SR leukemia)?
A: The TGI was > 100 µM.

Q: And the TGI (LXFL 529 NSCLC)?
A: The TGI was > 100 µM.

Q: What about the TGI (SNB-78 CNS) of the same molecule?
A: The TGI was > 100 µM.

Q: What about the TGI (UACC-62 melanoma) of the same molecule?
A: Its TGI is > 100 µM.

Q: And the TGI (M14 melanoma)?
A: Its TGI is > 100 µM.

Q: And the TGI (M19-MEL melanoma)?
A: Its TGI is > 100 µM.

Q: And the TGI (HOP-92 NSCLC)?
A: The TGI was > 100 µM.

Q: And the TGI (HCT-15 colon)?
A: The TGI was > 100 µM.

Q: What about the TGI (OVCAR-5 ovarian) of the same molecule?
A: The TGI was > 100 µM.

Q: And the TGI (SF-268 CNS)?
A: The TGI was > 100 µM.

Q: What about the TGI (HOP-18 NSCLC) of the same molecule?
A: The TGI was > 100 µM.

Q: What about the TGI (KM20L2 colon) of the same molecule?
A: Its TGI is > 100 µM.
